ChEMBL document CHEMBL4038335, “Neuroactive Steroids. 2. 3α-Hydroxy-3β-methyl-21-(4-cyano-1H-pyrazol-1'-yl)-19-nor-5β-pregnan-20-one (SAGE-217): A Clinical Next Generation Neuroactive Steroid Positive Allosteric Modulator of the (γ-Aminobutyric Acid)A Receptor” (J Med Chem, 2017)
Converted amounts (≈) assume the structure as drawn.

What was measured:
[1] = Displacement of [35S]TBPS from GABA-A receptor in Sprague-Dawley rat cerebral cortex cell membranes after 90 mins in presence of GABA by liquid scintillation counting
[2] = target: T1, GABA-A receptor; alpha-1/beta-2/gamma-2 (Homo sapiens, UniProt P14867+P18507+P47870); test: (§1) Positive allosteric modulation of GABAA receptor alpha1beta2gamma2 (unknown origin) expressed in mouse LTK cells assessed as potentiation of GABA-mediated increase in channel current under holding potential at -80 mV preincubated for 30 secs followed by GABA stimulation for 2 secs by automated patch clamp assay; format: cell-based
T1 sequence (P14867 whole entry): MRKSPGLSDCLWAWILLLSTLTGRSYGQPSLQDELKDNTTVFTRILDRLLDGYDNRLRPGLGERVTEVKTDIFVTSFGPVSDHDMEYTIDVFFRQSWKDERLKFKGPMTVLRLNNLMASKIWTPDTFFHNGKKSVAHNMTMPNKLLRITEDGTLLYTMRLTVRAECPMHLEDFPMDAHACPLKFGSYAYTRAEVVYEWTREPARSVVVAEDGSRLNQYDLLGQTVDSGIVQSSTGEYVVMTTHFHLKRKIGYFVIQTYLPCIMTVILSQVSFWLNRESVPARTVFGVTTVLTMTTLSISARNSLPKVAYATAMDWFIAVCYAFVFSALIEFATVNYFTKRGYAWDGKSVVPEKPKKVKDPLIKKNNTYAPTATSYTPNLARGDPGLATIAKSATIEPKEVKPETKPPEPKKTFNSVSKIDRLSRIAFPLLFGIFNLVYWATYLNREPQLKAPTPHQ
T1 sequence (P47870 whole entry): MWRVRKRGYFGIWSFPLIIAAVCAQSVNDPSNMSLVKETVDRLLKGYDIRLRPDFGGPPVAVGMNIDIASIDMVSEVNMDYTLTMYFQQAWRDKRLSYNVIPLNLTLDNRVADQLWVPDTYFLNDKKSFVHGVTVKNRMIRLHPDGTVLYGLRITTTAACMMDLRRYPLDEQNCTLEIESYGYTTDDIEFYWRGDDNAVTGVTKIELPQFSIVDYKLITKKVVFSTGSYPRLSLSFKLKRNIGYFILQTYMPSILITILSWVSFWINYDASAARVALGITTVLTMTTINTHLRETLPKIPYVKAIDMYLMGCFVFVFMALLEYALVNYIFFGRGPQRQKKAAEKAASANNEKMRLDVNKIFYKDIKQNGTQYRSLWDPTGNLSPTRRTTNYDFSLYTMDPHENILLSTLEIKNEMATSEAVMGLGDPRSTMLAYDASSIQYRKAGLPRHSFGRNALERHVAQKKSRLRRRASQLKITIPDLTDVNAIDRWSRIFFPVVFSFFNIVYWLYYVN
T1 sequence (P18507 whole entry): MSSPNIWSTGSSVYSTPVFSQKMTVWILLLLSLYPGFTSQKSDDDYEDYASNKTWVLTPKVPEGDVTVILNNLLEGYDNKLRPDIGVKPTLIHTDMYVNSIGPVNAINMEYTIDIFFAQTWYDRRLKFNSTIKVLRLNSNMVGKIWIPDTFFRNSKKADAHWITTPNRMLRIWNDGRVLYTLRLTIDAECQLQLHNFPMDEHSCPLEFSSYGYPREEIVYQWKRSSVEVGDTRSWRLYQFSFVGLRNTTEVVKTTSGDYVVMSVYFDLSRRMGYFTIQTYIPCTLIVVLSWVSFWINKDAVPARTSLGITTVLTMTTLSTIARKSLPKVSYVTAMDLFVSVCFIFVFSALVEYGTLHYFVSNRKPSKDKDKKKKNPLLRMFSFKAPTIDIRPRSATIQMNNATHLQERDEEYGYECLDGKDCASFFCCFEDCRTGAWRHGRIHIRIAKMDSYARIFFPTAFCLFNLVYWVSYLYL

[3] = target: GABA-A receptor; alpha-1/beta-2/gamma-2 (Homo sapiens) (UniProt P14867+P47870+P18507); test: as §1, with “mV at 0.01 to 10 uM” for “mV”, “assay relative to GABA” for “assay”; format: cell-based
[4] = target: Gamma-aminobutyric acid receptor subunit alpha-4/beta3/delta (Homo sapiens, UniProt O14764+P28472+P48169); test: as §1, with “alpha4beta3delta” for “alpha1beta2gamma2”, “CHO” for “mouse LTK”, “manual” for “automated”; format: cell-based
Gamma-aminobutyric acid receptor subunit alpha-4/beta3/delta, sequence (P28472 whole entry): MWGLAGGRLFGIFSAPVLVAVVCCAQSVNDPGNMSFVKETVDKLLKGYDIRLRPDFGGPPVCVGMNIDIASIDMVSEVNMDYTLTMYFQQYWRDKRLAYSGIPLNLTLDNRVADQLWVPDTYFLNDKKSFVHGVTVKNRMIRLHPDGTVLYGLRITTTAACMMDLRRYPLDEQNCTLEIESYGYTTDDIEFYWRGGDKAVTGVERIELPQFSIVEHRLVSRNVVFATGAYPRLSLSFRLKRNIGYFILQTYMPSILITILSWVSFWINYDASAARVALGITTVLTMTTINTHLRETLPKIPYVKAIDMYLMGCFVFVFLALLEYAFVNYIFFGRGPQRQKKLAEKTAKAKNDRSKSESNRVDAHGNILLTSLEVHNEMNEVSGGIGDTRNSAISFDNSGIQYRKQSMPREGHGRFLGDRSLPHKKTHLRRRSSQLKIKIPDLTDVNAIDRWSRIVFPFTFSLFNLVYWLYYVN
Gamma-aminobutyric acid receptor subunit alpha-4/beta3/delta, sequence (P48169 whole entry): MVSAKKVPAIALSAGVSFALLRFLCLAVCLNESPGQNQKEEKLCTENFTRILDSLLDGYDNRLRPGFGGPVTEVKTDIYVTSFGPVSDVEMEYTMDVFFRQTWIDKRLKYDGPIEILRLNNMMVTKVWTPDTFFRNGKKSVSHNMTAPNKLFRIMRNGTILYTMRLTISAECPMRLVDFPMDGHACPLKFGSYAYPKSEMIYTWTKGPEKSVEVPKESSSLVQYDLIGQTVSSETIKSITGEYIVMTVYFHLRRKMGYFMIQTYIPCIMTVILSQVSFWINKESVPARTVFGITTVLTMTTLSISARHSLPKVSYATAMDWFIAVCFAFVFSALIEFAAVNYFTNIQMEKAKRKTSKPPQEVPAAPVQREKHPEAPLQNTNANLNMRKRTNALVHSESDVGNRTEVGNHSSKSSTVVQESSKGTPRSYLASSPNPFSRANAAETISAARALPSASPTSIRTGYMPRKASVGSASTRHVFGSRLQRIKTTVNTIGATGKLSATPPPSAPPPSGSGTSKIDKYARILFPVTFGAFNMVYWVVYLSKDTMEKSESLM
Gamma-aminobutyric acid receptor subunit alpha-4/beta3/delta, sequence (O14764 whole entry): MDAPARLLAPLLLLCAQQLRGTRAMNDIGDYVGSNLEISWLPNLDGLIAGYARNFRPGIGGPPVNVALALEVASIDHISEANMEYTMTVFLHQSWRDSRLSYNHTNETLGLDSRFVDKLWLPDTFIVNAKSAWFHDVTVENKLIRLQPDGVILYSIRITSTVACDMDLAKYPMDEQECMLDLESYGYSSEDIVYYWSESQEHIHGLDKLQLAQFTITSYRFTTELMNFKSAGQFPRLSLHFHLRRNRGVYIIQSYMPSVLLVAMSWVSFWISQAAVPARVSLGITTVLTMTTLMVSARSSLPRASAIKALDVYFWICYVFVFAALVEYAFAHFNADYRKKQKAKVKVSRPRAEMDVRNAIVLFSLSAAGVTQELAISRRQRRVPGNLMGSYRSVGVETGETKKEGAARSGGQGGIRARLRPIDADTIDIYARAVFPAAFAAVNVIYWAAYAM

[5] = target: GABA-A receptor alpha-4/beta-3/delta (Homo sapiens, UniProt P28472+P48169+); test: as §1, with “alpha4beta3delta” for “alpha1beta2gamma2”, “CHO” for “mouse LTK”, “mV at 0.01 to 10 uM” for “mV”, “manual” for “automated”, “assay relative to GABA” for “assay”; format: cell-based; settings: 2 s
GABA-A receptor alpha-4/beta-3/delta, sequence (P28472 whole entry): as the sequence (P28472 whole entry) above
GABA-A receptor alpha-4/beta-3/delta, sequence (P48169 whole entry): as the sequence (P48169 whole entry) above
GABA-A receptor alpha-4/beta-3/delta, sequence (Q06278 whole entry, further chain): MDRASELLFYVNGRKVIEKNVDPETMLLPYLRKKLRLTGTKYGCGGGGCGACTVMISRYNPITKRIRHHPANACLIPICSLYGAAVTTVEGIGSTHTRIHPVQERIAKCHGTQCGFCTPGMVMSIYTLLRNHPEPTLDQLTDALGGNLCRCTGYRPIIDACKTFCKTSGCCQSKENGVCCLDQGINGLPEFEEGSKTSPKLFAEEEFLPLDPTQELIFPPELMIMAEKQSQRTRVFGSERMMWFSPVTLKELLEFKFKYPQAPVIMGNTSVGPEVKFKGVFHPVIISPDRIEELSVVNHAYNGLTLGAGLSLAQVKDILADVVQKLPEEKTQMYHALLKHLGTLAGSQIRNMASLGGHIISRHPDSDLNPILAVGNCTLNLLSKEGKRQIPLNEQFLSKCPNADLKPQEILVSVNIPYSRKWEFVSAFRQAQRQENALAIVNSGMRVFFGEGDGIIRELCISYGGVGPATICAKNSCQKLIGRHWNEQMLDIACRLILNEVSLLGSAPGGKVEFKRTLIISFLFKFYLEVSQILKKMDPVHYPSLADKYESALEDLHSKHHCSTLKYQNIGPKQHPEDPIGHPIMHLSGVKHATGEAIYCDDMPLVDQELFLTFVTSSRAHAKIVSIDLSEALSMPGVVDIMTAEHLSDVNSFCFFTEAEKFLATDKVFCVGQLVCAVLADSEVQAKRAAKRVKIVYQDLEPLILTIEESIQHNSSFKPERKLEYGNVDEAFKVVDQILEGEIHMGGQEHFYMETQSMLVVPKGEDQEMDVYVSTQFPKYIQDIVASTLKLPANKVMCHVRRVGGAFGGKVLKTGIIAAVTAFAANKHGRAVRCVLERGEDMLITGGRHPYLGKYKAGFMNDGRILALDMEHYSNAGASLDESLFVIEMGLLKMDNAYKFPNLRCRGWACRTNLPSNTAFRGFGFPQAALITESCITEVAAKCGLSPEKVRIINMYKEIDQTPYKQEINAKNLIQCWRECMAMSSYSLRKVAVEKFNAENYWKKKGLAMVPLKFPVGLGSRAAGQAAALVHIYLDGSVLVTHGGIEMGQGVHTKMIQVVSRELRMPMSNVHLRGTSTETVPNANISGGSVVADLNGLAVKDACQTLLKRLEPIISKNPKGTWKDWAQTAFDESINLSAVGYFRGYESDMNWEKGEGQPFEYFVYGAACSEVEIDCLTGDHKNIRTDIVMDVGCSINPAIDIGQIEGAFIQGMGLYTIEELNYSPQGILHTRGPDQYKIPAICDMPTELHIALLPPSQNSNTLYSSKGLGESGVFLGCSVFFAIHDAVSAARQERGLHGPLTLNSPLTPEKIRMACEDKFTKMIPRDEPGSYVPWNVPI

[6] = Thermodynamic aqueous solubility of compound at 10 uM sonicated for 1 min followed by incubation for 1 hr by HPLC-MS/MS; format: physicochemical; settings: buffer; read-out: Therm_solubility
[7] = Clearance in human hepatic microsomes at 10 uM preincubated for 5 mins followed by NADPH addition measured over 60 mins by HPLC-MS/MS analysis; format: ADME, Microsome; settings: liver microsomes
[8] = Clearance in rat hepatic microsomes at 10 uM preincubated for 5 mins followed by NADPH addition measured over 60 mins by HPLC-MS/MS analysis; format: ADME, Microsome; settings: liver microsomes
[9] = Clearance in mouse hepatic microsomes at 10 uM preincubated for 5 mins followed by NADPH addition measured over 60 mins by HPLC-MS/MS analysis; format: ADME, Microsome; settings: liver microsomes
[10] = Clearance in CD1 mouse at 5 mg/kg, iv or 20 mg/kg, po measured up to 8 hrs post dose by LC/MS-MS analysis; format: ADME, organism-based; settings: in vivo
[11] = Oral bioavailability in Sprague-Dawley rat at 20 mg/kg measured up to 8 hrs post dose by LC/MS-MS analysis; format: ADME, organism-based; settings: in vivo
[12] = Oral bioavailability in CD1 mouse at 20 mg/kg measured up to 8 hrs post dose by LC/MS-MS analysis; format: ADME, organism-based; settings: in vivo
[13] = Ratio of drug level in Sprague-Dawley rat brain to plasma at 5 mg/kg, iv measured at 30 mins post dose by LC/MS-MS analysis; format: ADME, organism-based; settings: read-out: BPR
[14] = Ratio of drug level in CD1 mouse brain to plasma at 5 mg/kg, iv measured at 30 mins post dose by LC/MS-MS analysis; format: ADME, organism-based; settings: read-out: BPR
[15] = Lipophilicity, logD of compound at 20 uM at pH 7.4 by HPLC/MS-MS analysis; format: physicochemical; settings: buffer
[16] = Clearance in Sprague-Dawley rat at 5 mg/kg, iv or 20 mg/kg, po measured up to 8 hrs post dose by LC/MS-MS analysis; format: ADME, organism-based; settings: in vivo

Row | SMILES | IC50 [1] | EC50 [2] | Emax [3] | EC50 [4] | Emax [5] | solubility thermodynamic at 1 h, 10 µM [6] | CLhep predicted at 10 µM [7] | CLhep predicted at 10 µM [8] | CLhep predicted at 10 µM [9] | clearance [10] | bioavailability [11] | bioavailability [12] | Kp at 0.5 h [13] | Kp at 0.5 h [14] | logD at 20 µM [15] | clearance [16]
1 | C[C@@]1(O)CC[C@H]2[C@H](CC[C@@H]3[C@@H]2CC[C@]2(C)[C@@H](C(=O)Cn4cc(Cl)cn4)CC[C@@H]32)C1 | 13 nM | 1500 nM | 642% | 744 nM | – | – | – | – | – | – | – | – | – | – | – | –
2 | C[C@@]1(O)CC[C@H]2[C@H](CC[C@@H]3[C@@H]2CC[C@]2(C)[C@@H](C(=O)Cn4nccn4)CC[C@@H]32)C1 | 11 nM | 125 nM | 663% | 240 nM | 579% | 7.3 µM (≈ 2.81 µg/mL) | 3.33 mL/min/kg | 45 mL/min/kg | 66.7 mL/min/kg | 43.3 mL/min/kg | 25% | 17% | 1.8 | 1 | – | –
3 | C[C@@]1(O)CC[C@H]2[C@H](CC[C@@H]3[C@@H]2CC[C@]2(C)[C@@H](C(=O)Cn4ncc(C#N)n4)CC[C@@H]32)C1 | 78 nM | > 3000 nM | > 154% | – | – | – | – | – | – | – | – | – | – | – | – | –
4 | C[C@@]1(O)CC[C@H]2[C@H](CC[C@@H]3[C@@H]2CC[C@]2(C)[C@@H](C(=O)Cn4cc(C(F)(F)F)cn4)CC[C@@H]32)C1 | 8 nM | 1050 nM | 339% | 1600 nM | – | – | – | – | – | – | – | – | – | – | – | –
5 | Cc1cnnn1CC(=O)[C@H]1CC[C@H]2[C@@H]3CC[C@@H]4C[C@](C)(O)CC[C@@H]4[C@H]3CC[C@]12C | > 3000 nM | 1600 nM | 1120% | 2010 nM | – | – | – | – | – | – | – | – | – | – | – | –
6 | C[C@@]1(O)CC[C@H]2[C@H](CC[C@@H]3[C@@H]2CC[C@]2(C)[C@@H](C(=O)Cn4cc(C(N)=O)cn4)CC[C@@H]32)C1 | 64 nM | > 3000 nM | > 357% | – | – | – | – | – | – | – | – | – | – | – | – | –
7 | Cc1cn(CC(=O)[C@H]2CC[C@H]3[C@@H]4CC[C@@H]5C[C@](C)(O)CC[C@@H]5[C@H]4CC[C@]23C)nn1 | 17 nM | > 3000 nM | > 530% | – | – | – | – | – | – | – | – | – | – | – | – | –
8 | C[C@@]1(O)CC[C@H]2[C@H](CC[C@@H]3[C@@H]2CC[C@]2(C)[C@@H](C(=O)Cn4cc(C#N)nn4)CC[C@@H]32)C1 | 251 nM | – | – | – | – | – | – | – | – | – | – | – | – | – | – | –
9 | C[C@@]1(O)CC[C@H]2[C@H](CC[C@@H]3[C@@H]2CC[C@]2(C)[C@@H](C(=O)Cn4cc([N+](=O)[O-])cn4)CC[C@@H]32)C1 | 18 nM | 1160 nM | 440% | – | – | – | – | – | – | – | – | – | – | – | – | –
10 | COC[C@@]1(O)CC[C@H]2[C@H](CC[C@@H]3[C@@H]2CC[C@]2(C)[C@@H](C(=O)Cn4cc(C#N)cn4)CC[C@@H]32)C1 | 16 nM | > 3000 nM | > 1130% | 577 nM | 610% | – | – | – | – | – | – | – | – | – | – | –
11 | C[C@@]1(O)CC[C@H]2[C@H](CC[C@@H]3[C@@H]2CC[C@]2(C)[C@@H](C(=O)Cn4cccn4)CC[C@@H]32)C1 | 30 nM | 979 nM | 474% | 1240 nM | 583% | 8 µM (≈ 3.08 µg/mL) | 5 mL/min/kg | 41.7 mL/min/kg | 81.7 mL/min/kg | 75 mL/min/kg | 19% | 5% | 1.1 | – | 4.6 | 28.3 mL/min/kg
12 | Cc1cnn(CC(=O)[C@H]2CC[C@H]3[C@@H]4CC[C@@H]5C[C@](C)(O)CC[C@@H]5[C@H]4CC[C@]23C)n1 | 21 nM | 1640 nM | 532% | 192 nM | 614% | 7 µM (≈ 2.8 µg/mL) | 5 mL/min/kg | 53.3 mL/min/kg | 81.7 mL/min/kg | 61.7 mL/min/kg | 6% | 39% | – | 1 | – | 50 mL/min/kg
13 | CC[C@@]1(O)CC[C@H]2[C@H](CC[C@@H]3[C@@H]2CC[C@]2(C)[C@@H](C(=O)Cn4cc(C#N)cn4)CC[C@@H]32)C1 | 36 nM | > 3000 nM | > 297% | – | – | – | – | – | – | – | – | – | – | – | – | –
14 | Cc1cnn(CC(=O)[C@H]2CC[C@H]3[C@@H]4CC[C@@H]5C[C@](C)(O)CC[C@@H]5[C@H]4CC[C@]23C)c1 | 49 nM | 291 nM | 427% | 1360 nM | 841% | 7 µM (≈ 2.79 µg/mL) | 8.33 mL/min/kg | 50 mL/min/kg | 85 mL/min/kg | 60 mL/min/kg | 9.5% | 6% | 2 | – | 5 | 63.3 mL/min/kg
15 | CC(=O)[C@H]1CC[C@H]2[C@@H]3CC[C@H]4C[C@H](O)CC[C@]4(C)[C@H]3CC[C@]12C [BREXANOLONE] | 22 nM | 237 nM | 510% | 75.5 nM | 430% | 3.3 µM (≈ 1.05 µg/mL) | – | 55 mL/min/kg | 66.7 mL/min/kg | 200 mL/min/kg | 2% | – | 1.8 | 1.9 | – | –
16 | Cc1ccnn1CC(=O)[C@H]1CC[C@H]2[C@@H]3CC[C@@H]4C[C@](C)(O)CC[C@@H]4[C@H]3CC[C@]12C | 80 nM | > 10000 nM | > 469% | – | – | – | – | – | – | – | – | – | – | – | – | –
17 | COc1cnn(CC(=O)[C@H]2CC[C@H]3[C@@H]4CC[C@@H]5C[C@](C)(O)CC[C@@H]5[C@H]4CC[C@]23C)c1 | 28 nM | 1760 nM | 434% | 2050 nM | 750% | – | – | – | – | – | – | – | – | – | – | –
18 | C[C@@]1(O)CC[C@H]2[C@H](CC[C@@H]3[C@@H]2CC[C@]2(C)[C@@H](C(=O)Cn4cc(C(=O)O)cn4)CC[C@@H]32)C1 | > 3000 nM | – | – | – | – | – | – | – | – | – | – | – | – | – | – | –
19 | Cc1ccn(CC(=O)[C@H]2CC[C@H]3[C@@H]4CC[C@@H]5C[C@](C)(O)CC[C@@H]5[C@H]4CC[C@]23C)n1 | 45 nM | > 3650 nM | > 695% | – | – | – | – | – | – | – | – | – | – | – | – | –
